In the supplement of paper PMC10307832:

Assays:
Experiment in all cases: relative viability (nuclei count vs DMSO), 5 days (fraction); higher = more cells survive
[1] = compound: COC1=CC=C(C=C1)CN2C=CC3=C2C=C(C=C3)C(=O)NO + Cc1cc(Nc2cc(N3CCN(C)CC3)nc(Sc3ccc(NC(=O)C4CC4)cc3)n2)n[nH]1 [Tozasertib] (partner 0.1 µM)
Summary of the method: (§1)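 Lung cancer cell lines were pin-tool dosed in 1536-well plates on the day after seeding, with either a lone drug or a fixed anchor-drug dose plus five library-drug doses (not always all listed) in √10 steps. Nuclei were counted on 4× images after 5 days. Relative viability is the ratio of treated-well to vehicle-well nuclei counts, with each value a median of duplicate plates.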

[2] = compound: C[C@]1(c2nc3c(C(N)=O)cccc3[nH]2)CCCN1 [Veliparib] + CC1(C)CCC(c2ccc(Cl)cc2)=C(CN2CCN(c3ccc(C(=O)NS(=O)(=O)c4ccc(N[C@H](CCN5CCOCC5)CSc5ccccc5)c(S(=O)(=O)C(F)(F)F)c4)cc3)CC2)C1 [Navitoclax] (partner 0.5 µM)
Summary of the method: as §1

[3] = compound: C[C@]1(c2nc3c(C(N)=O)cccc3[nH]2)CCCN1 [Veliparib] + C[C@@H](Oc1cc(-c2cnn(C3CCNCC3)c2)cnc1N)c1c(Cl)ccc(F)c1Cl [Crizotinib] (partner 1 µM)
Summary of the method: as §1

[4] = compound: C[C@]1(c2nc3c(C(N)=O)cccc3[nH]2)CCCN1 [Veliparib] + Nc1nc2[nH]cc(CCc3ccc(C(=O)N[C@@H](CCC(=O)O)C(=O)O)cc3)c2c(=O)[nH]1 [Pemetrexed] (partner 0.2 µM)
Summary of the method: as §1

| Cell Line | relative viability ([1]; first compound 0.08 µM) | relative viability ([1]; first compound 0.253 µM) | relative viability ([1]; first compound 0.8 µM) | relative viability ([1]; first compound 2.53 µM) | relative viability ([1]; first compound 8 µM) | relative viability ([2]; first compound 0.06325 µM) | relative viability ([2]; first compound 0.2 µM) | relative viability ([2]; first compound 0.6325 µM) | relative viability ([2]; first compound 2 µM) | relative viability ([3]; first compound 0.02 µM) | relative viability ([3]; first compound 0.06325 µM) | relative viability ([3]; first compound 0.2 µM) | relative viability ([3]; first compound 0.6325 µM) | relative viability ([3]; first compound 2 µM) | relative viability ([4]; first compound 0.02 µM) | relative viability ([4]; first compound 0.06325 µM) | relative viability ([4]; first compound 0.2 µM) | relative viability ([4]; first compound 0.6325 µM) | relative viability ([4]; first compound 2 µM) | relative viability ([2]; first compound 0.02 µM) |
| --- | --- | --- | --- | --- | --- | --- | --- | --- | --- | --- | --- | --- | --- | --- | --- | --- | --- | --- | --- | --- |
| LC-2-ad | 0.384 | 0.46 | 0.485 | 0.411 | 0.382 | 0.446 | 0.405 | 0.312 | 0.497 | 0.458 | 0.396 | 0.483 | 0.46 | 0.443 | 0.277 | 0.277 | 0.273 | 0.263 | 0.287 | – |
| LOU-NH91 | 0.407 | 0.693 | 0.66 | 0.64 | 0.587 | 0.643 | 0.672 | 0.689 | 0.703 | 0.729 | 0.719 | 0.745 | 0.688 | 0.774 | 0.394 | 0.374 | 0.39 | 0.374 | 0.374 | 0.539 |
| NCI-H1623 | 0.407 | 0.411 | 0.421 | 0.42 | 0.436 | – | – | – | – | – | – | – | – | – | – | – | – | – | – | – |
| NCI-H727 | 0.592 | 0.529 | 0.772 | 0.602 | 0.625 | 0.492 | 0.504 | 0.369 | 0.467 | 0.814 | 0.685 | 0.855 | 0.668 | 0.764 | – | – | – | – | – | 0.4 |
| NCI-H2347 | 0.463 | 0.415 | 0.613 | 0.611 | 0.503 | 0.775 | 0.724 | 0.695 | 0.729 | 0.798 | 0.839 | 0.678 | 0.652 | 0.616 | 0.434 | 0.456 | 0.425 | 0.471 | 0.445 | 0.794 |
| NCI-H1993 | 0.568 | 0.627 | 0.517 | 0.6 | 0.567 | 0.898 | 1.07 | 0.902 | 0.959 | 0.836 | 0.822 | 0.815 | 0.787 | 0.771 | – | 0.708 | 0.616 | 0.632 | 0.627 | 0.939 |
| HCC-827 | 0.405 | 0.427 | 0.442 | 0.416 | 0.415 | 0.937 | 0.971 | 0.944 | 1.02 | 0.913 | 0.919 | 0.947 | 0.921 | 0.905 | 0.25 | 0.282 | 0.256 | 0.215 | 0.273 | 1.03 |
| NCI-H1975 | 0.69 | 0.852 | 0.707 | 0.692 | 0.551 | 1.14 | 1.22 | 0.942 | 0.981 | 0.964 | 1.12 | 0.977 | 0.93 | 0.89 | 0.292 | 0.332 | 0.295 | 0.292 | 0.311 | 1.07 |
